In PubChem BioAssay (NCI):
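Compound exposure: 48 hours, 5 concentrations, 96-well plates. GI50 is the concentration that inhibits growth by half. TGI: total growth inhibition.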

Assays:
Assay in all cases: NCI-60 cell line screen, 48 h
OVCAR-3 ovarian = system: OVCAR-3 ovarian
ACHN renal = system: ACHN renal
MDA-MB-231 breast = system: MDA-MB-231 breast
RPMI-8226 leukemia = system: RPMI-8226 leukemia
IGROV1 ovarian = system: IGROV1 ovarian
MCF7 breast = system: MCF7 breast
BT-549 breast = system: BT-549 breast
SNB-75 CNS = system: SNB-75 CNS
U251 CNS = system: U251 CNS
T-47D breast = system: T-47D breast
NCI-H522 lung = system: NCI-H522 lung
NCI-H226 lung = system: NCI-H226 lung
HS 578T breast = system: HS 578T breast
HT29 colon = system: HT29 colon
SNB-19 CNS = system: SNB-19 CNS
UO-31 renal = system: UO-31 renal
LOX IMVI melanoma = system: LOX IMVI melanoma
NCI-H23 lung = system: NCI-H23 lung
OVCAR-4 ovarian = system: OVCAR-4 ovarian
SK-MEL-2 melanoma = system: SK-MEL-2 melanoma
DU-145 prostate = system: DU-145 prostate
A498 renal = system: A498 renal
SK-OV-3 ovarian = system: SK-OV-3 ovarian
CAKI-1 renal = system: CAKI-1 renal
COLO 205 colon = system: COLO 205 colon
MDA-MB-435 = system: MDA-MB-435
UACC-257 melanoma = system: UACC-257 melanoma
MOLT-4 leukemia = system: MOLT-4 leukemia
SF-295 CNS = system: SF-295 CNS

**Q.** What does the source list for O=C(CCCCCCNC(=O)C(O)(O)C(F)(F)F)Nc1ccc(Br)cc1?
**A.** TGI (OVCAR-3 ovarian): 7.5 µM; GI50 (ACHN renal): 2.65 µM; TGI (ACHN renal): 17.7 µM; GI50 (MDA-MB-231 breast): 2.12 µM; TGI (MDA-MB-231 breast): 16.6 µM; GI50 (RPMI-8226 leukemia): 1.9 µM; TGI (RPMI-8226 leukemia): > 33 µM; GI50 (IGROV1 ovarian): 4.48 µM; TGI (IGROV1 ovarian): 14.1 µM; GI50 (MCF7 breast): 7.77 µM; TGI (MCF7 breast): > 33 µM; GI50 (BT-549 breast): 6.42 µM; TGI (BT-549 breast): > 33 µM; GI50 (SNB-75 CNS): 3 µM; TGI (SNB-75 CNS): > 33 µM; GI50 (U251 CNS): 3.64 µM; TGI (U251 CNS): 17.6 µM; GI50 (T-47D breast): 1.69 µM; TGI (T-47D breast): 24.3 µM; GI50 (NCI-H522 lung): 4.19 µM; TGI (NCI-H522 lung): 22.8 µM; GI50 (NCI-H226 lung): 8.33 µM; TGI (NCI-H226 lung): > 33 µM; GI50 (HS 578T breast): 3.84 µM; TGI (HS 578T breast): 30.1 µM; GI50 (HT29 colon): 5.11 µM; TGI (HT29 colon): > 33 µM; GI50 (SNB-19 CNS): 5.58 µM; TGI (SNB-19 CNS): 18.1 µM; GI50 (UO-31 renal): 1.98 µM; TGI (UO-31 renal): 14.8 µM; GI50 (LOX IMVI melanoma): 2.9 µM; TGI (LOX IMVI melanoma): 7.5 µM; GI50 (NCI-H23 lung): 4.6 µM; TGI (NCI-H23 lung): 19.6 µM; GI50 (OVCAR-4 ovarian): 13.4 µM; TGI (OVCAR-4 ovarian): > 33 µM; GI50 (SK-MEL-2 melanoma): 3.29 µM; TGI (SK-MEL-2 melanoma): 20.1 µM; GI50 (DU-145 prostate): 5.46 µM; TGI (DU-145 prostate): > 33 µM; GI50 (A498 renal): 1.09 µM; TGI (A498 renal): 9.68 µM; GI50 (SK-OV-3 ovarian): 1.95 µM; TGI (SK-OV-3 ovarian): 17.3 µM; GI50 (CAKI-1 renal): 7.02 µM; TGI (CAKI-1 renal): > 33 µM; GI50 (COLO 205 colon): 5.02 µM; TGI (COLO 205 colon): 17.7 µM; GI50 (MDA-MB-435): 3.64 µM; TGI (MDA-MB-435): > 33 µM; GI50 (UACC-257 melanoma): 6.7 µM; TGI (UACC-257 melanoma): > 33 µM; GI50 (MOLT-4 leukemia): 1.42 µM; TGI (MOLT-4 leukemia): > 33 µM; GI50 (SF-295 CNS): 2.73 µM; TGI (SF-295 CNS): 8.17 µM
